Experimental findings from patent US20090075937A1, “LHRH ANTAGONISTS FOR THE TREATMENT OF LOWER URINARY TRACT SYMPTOMS” (AETERNA ZENTARIS GmbH, priority 2007, published 2009) are described below.

Data set [1] relates to study subjects. The data set is described as follows: Peroral treatment of study subjects with tetrahydrocarbazole compounds: nocturia frequency, urgency to urinate, frequency of emptying (Examples 4-9). It counts as in vivo, human. The conditions noted are these: 50 to 150 mg perorally daily as a single dose, schemes of 6 weeks to 6 months.
Data set [2] deals with study subjects. The data set is described as follows: Peroral treatment of study subjects with tetrahydrocarbazole compounds: chemical (hormonal) castration (Examples 4-9). It is filed as in vivo, human. The conditions noted are these: 50 to 150 mg perorally daily as a single dose, schemes of 6 weeks to 6 months.
Procedure: In the course of the present invention, the terms “hormone” and “hormonal” within for instance the terms “hormone castration”, “chemical (hormonal) castration” or “hormone withdrawal symptoms” refer to follicle stimulating hormone (FSH), luteinizing hormone (LH) and/or testosterone. Preferably, chemical (hormonal) castration is a testosterone castration and refers to a testosterone blood level of equal or below 1.2 ng/mL, preferably 0.5 ng/mL.
Study subjects are treated with compound (76) with the following doses according to the following administration schemes: • in a 3 month trial, 75 mg or 150 mg compound (76) administered perorally daily as a single dose on day 2-7 of the menstrual cycle • in a 3 months trial, 75 mg, 100 mg or 150 mg compound (76) administered perorally daily as a single dose on day 2-7 of the menstrual cycle followed by a 3 months treatment-free period • in a 6 months trial, 75 mg or 150 mg compound (76) administered perorally daily as a single dose • 50 mg or 150 mg per compound (76) administered daily as a single dose over 42 days (6 weeks)
Study subjects are treated with compound (68) with the following doses according to the following administration schemes: • in a 3 month trial, 75 mg or 150 mg compound (68) administered perorally daily as a single dose on day 2-7 of the menstrual cycle • in a 3 months trial, 75 mg, 100 mg or 150 mg compound (68) administered perorally daily as a single dose on day 2-7 of the menstrual cycle followed by a 3 months treatment-free period • in a 6 months trial, 75 mg or 150 mg compound (68) administered perorally daily as a single dose • 50 mg or 150 mg per compound (68) administered daily as a single dose over 42 days (6 weeks)
Study subjects are treated with compound 36 with the following doses according to the following administration schemes: • in a 3 month trial, 75 mg or 150 mg compound 36 administered perorally daily as a single dose on day 2-7 of the menstrual cycle • in a 3 months trial, 75 mg, 100 mg or 150 mg compound 36 administered perorally daily as a single dose on day 2-7 of the menstrual cycle followed by a 3 months treatment-free period • in a 6 months trial, 75 mg or 150 mg compound 36 administered perorally daily as a single dose • 50 mg or 150 mg per compound 36 administered daily as a single dose over 42 days (6 weeks)
Study subjects are treated with compound 37 with the following doses according to the following administration schemes: • in a 3 month trial, 75 mg or 150 mg compound 37 administered perorally daily as a single dose on day 2-7 of the menstrual cycle • in a 3 months trial, 75 mg, 100 mg or 150 mg compound 37 administered perorally daily as a single dose on day 2-7 of the menstrual cycle followed by a 3 months treatment-free period • in a 6 months trial, 75 mg or 150 mg compound 37 administered perorally daily as a single dose • 50 mg or 150 mg per compound 37 administered daily as a single dose over 42 days (6 weeks)
Study subjects are treated with compound 52 with the following doses according to the following administration schemes: • in a 3 month trial, 75 mg or 150 mg compound 52 administered perorally daily as a single dose on day 2-7 of the menstrual cycle • in a 3 months trial, 75 mg, 100 mg or 150 mg compound 52 administered perorally daily as a single dose on day 2-7 of the menstrual cycle followed by a 3 months treatment-free period • in a 6 months trial, 75 mg or 150 mg compound 52 administered perorally daily as a single dose • 50 mg or 150 mg per compound 52 administered daily as a single dose over 42 days (6 weeks)
In data set [3] the test system is study subjects. The data set is described as follows: Frequency of emptying: how often the study subjects had to urinate a second time within a 2 hour test period. It is filed as in vivo, human. The conditions noted are these: for Frequency of emptying (n-times, mean): 15 + 15: 15 mg at week 0 and week 2. From the text: (§1) The results shown are percentage variations from baseline at the beginning of the study (week 0).
The results shown are mean values, how often the study subjects had to urinate a second time.

Data set [4] relates to study subjects. Put plainly: IPSS irritative subscore (sum of nocturia, frequency of emptying and urgency to urinate). It is filed as in vivo, human. As to conditions: for IPSS irritative subscore (nocturia, frequency of emptying, urgency to urinate): percentage variation from baseline.
From the text: as §1

Data set [5] relates to study subjects. The data set is described as follows: Nocturia: how often the study subjects got up during the night in order to urinate. It is filed as in vivo, human. The conditions noted are these: for Nocturia (n-times, mean): 15 + 15: 15 mg at week 0 and week 2.
From the text: as §1
The results shown are mean values, how often the study subjects had to get up.

Data set [6] has as its system testosterone blood levels. Put plainly: Median testosterone blood levels / chemical (hormonal) castration. The conditions noted are these: blood level.
Procedure: Preferably, chemical (hormonal) castration is a testosterone castration and refers to a testosterone blood level of equal or below 1.2 ng/mL, preferably 0.5 ng/mL.
Study subjects were treated with Cetrorelix pamoate with the following doses according to the following administration schemes: • 60 mg Cetrorelix pamaote administered at week 0 and 30 mg Cetrorelix pamaote administered at week 2 (treatment period) followed by up to 5 months of no treatment (treatment-free period) • 60 mg Cetrorelix pamaote administered at week 0 and 60 mg Cetrorelix pamaote administered at week 2 (treatment period) followed by up to 5 months of no treatment (treatment-free period)
Study subjects were treated with Cetrorelix acetate with the following doses according to the following administration schemes: • 5 mg Cetrorelix acetate administered at week 0, 1, 2 and 3 (total monthly dose of 20 mg) (treatment period) followed by up to 4 months of no treatment (treatment-free period) • 10 mg Cetrorelix acetate administered at week 0 and 10 mg Cetrorelix acetate administered at week 2 (treatment period) followed by up to 4 months of no treatment (treatment-free period) • 10 mg Cetrorelix acetate administered at week 0, 1, 2 and 3 (total monthly dose of 40 mg) (treatment period) followed by up to 4 months of no treatment (treatment-free period)
Study subjects were treated with Ozarelix with the following doses according to the following administration schemes: • 15 mg Ozarelix administered at week 0 and 15 mg Ozarelix administered at week 2 (treatment period) followed by up to 4 months of no treatment (treatment-free period)
The test system of data set [7] is study subjects. Put plainly: Urgency to urinate: how often the study subjects had difficulties to delay the urination. It is filed as in vivo, human. As to conditions: for Urgency to urinate (n-times, mean): 15 + 15: 15 mg at week 0 and week 2. From the text: The results shown are mean values, how often the study subjects had difficulties.
Where [8] appears, read: 60+30 mg and 60+60 mg schemes, largest difference over weeks 4-24.
Setting [9] is: 60 + 30: 60 mg week 0, 30 mg week 2, Week 0.
Setting [10] is: 60 + 30: 60 mg week 0, 30 mg week 2, Week 4.
Setting [11] is: 60 + 30: 60 mg week 0, 30 mg week 2, Week 8.
The mark [12] stands for this setting: 60 + 30: 60 mg week 0, 30 mg week 2, Week 12.
[13] abbreviates: 60 + 30: 60 mg week 0, 30 mg week 2, Week 16.
Setting [14] is: 60 + 30: 60 mg week 0, 30 mg week 2, Week 20.
[15] abbreviates: 60 + 30: 60 mg week 0, 30 mg week 2, Week 24.
[16] abbreviates: 60 + 60: 60 mg week 0, 60 mg week 2, Week 0.
Where [17] appears, read: 60 + 60: 60 mg week 0, 60 mg week 2, Week 4.
[18] abbreviates: 60 + 60: 60 mg week 0, 60 mg week 2, Week 8.
Setting [19] is: 60 + 60: 60 mg week 0, 60 mg week 2, Week 12.
The mark [20] stands for this setting: 60 + 60: 60 mg week 0, 60 mg week 2, Week 16.
Where [21] appears, read: 60 + 60: 60 mg week 0, 60 mg week 2, Week 20.
[22] abbreviates: 60 + 60: 60 mg week 0, 60 mg week 2, Week 24.
Setting [23] is: 15+15 mg scheme, largest difference, n-times mean.

On to `CCC(C)[C@H](NC(=O)Cc1ccccc1F)C(=O)N[C@]1(C(=O)N[C@H](C(=O)NCN2CCOCC2)C(C)CC)CCc2[nH]c3c(C(F)(F)F)cccc3c2C1` (stereo partly drawn) [Compound 36, (R)-3-{(S)-2-[2-(2-Fluoro-phenyl)-acetylamino]-3-methyl-pentanoylamino}-8-trifluoromethyl-2,3,4,9-tetrahydro-1H-carbazole-3-carboxylic acid {(S)-2-methyl-1-[(morpholin-4-ylmethyl)-carbamoyl]-butyl}-amide], for which the “nocturia frequency, urgency to urinate and/or frequency of emptying compared to placebo” value in data set [1] is given as “decrease”. Further, the “chemical (hormonal) castration” value in data set [2] is listed as “successfully prevented”.
As for `CCC(C)[C@H](NC(=O)Cc1ccccc1F)C(=O)N[C@]1(C(=O)N[C@H](C(=S)NCN2CCOCC2)C(C)CC)CCc2[nH]c3c(C(F)(F)F)cccc3c2C1` (stereo partly drawn) [Compound 37, (R)-3-{(S)-2-[2-(2-Fluoro-phenyl)-acetylamino]-3-methyl-pentanoylamino}-8-trifluoromethyl-2,3,4,9-tetrahydro-1H-carbazole-3-carboxylic acid {(S)-2-methyl-1-[(morpholin-4-ylmethyl)-thiocarbamoyl]-butyl}-amide], the “nocturia frequency, urgency to urinate and/or frequency of emptying compared to placebo” value in data set [1] is recorded as “decrease”. Besides, the “chemical (hormonal) castration” value in data set [2] is listed as “successfully prevented”.
As for Cetrorelix pamoate, in data set [3] (setting [8]), the “further decrease in frequency (of emptying) compared to placebo” value is “up to 29%”. In addition, the “Frequency of emptying (percentage variation from baseline)” value is listed as 0% in data set [3] (setting [9]); −9% in data set [3] (setting [10]); −19% in data set [3] (setting [11]); −20% in data set [3] (setting [12]); −26% in data set [3] (setting [13]); −27% in data set [3] (setting [14]). The “Frequency of emptying (percentage variation from baseline)” value in data set [3] (setting [15]) is reported as −31%; in data set [3] (setting [16]), 0%; in data set [3] (setting [17]), −16%; in data set [3] (setting [18]), −25%; in data set [3] (setting [19]), −24%; in data set [3] (setting [20]) it was −29%. For the same compound, the “Frequency of emptying (percentage variation from baseline)” value in data set [3] (setting [21]) is on record as −25%; in data set [3] (setting [22]) it was −34%. In addition, the “further decrease in IPSS irritative subscore compared to placebo” value in data set [4] (setting [8]) is “up to 30%”. In addition, the “IPSS irritative subscore (nocturia, frequency of emptying, urgency to urinate)” value in data set [4] (setting [9]) was 0%; in data set [4] (setting [10]) it was −14.8%; in data set [4] (setting [11]), −33.3%; in data set [4] (setting [12]), −29.3%; in data set [4] (setting [13]) it was −33.3%; in data set [4] (setting [14]), −33.3%. In addition, the “IPSS irritative subscore (nocturia, frequency of emptying, urgency to urinate)” value in data set [4] (setting [15]) is listed as −38%; in data set [4] (setting [16]) it was 0%; in data set [4] (setting [17]) it was −16.7%; in data set [4] (setting [18]), −25%; in data set [4] (setting [19]) it was −25%; in data set [4] (setting [20]), −25%. The “IPSS irritative subscore (nocturia, frequency of emptying, urgency to urinate)” value in data set [4] (setting [21]) is recorded as −27.6%; in data set [4] (setting [22]), −40%. The “further decrease in nocturia frequency compared to placebo” value in data set [5] (setting [8]) is on record as “up to 11%”. For the same compound, the “Nocturia (percentage variation from baseline)” value is on record as 0% in data set [5] (setting [9]); −14% in data set [5] (setting [10]); −26% in data set [5] (setting [11]); −27% in data set [5] (setting [12]); −27% in data set [5] (setting [13]); −33% in data set [5] (setting [14]). Besides, the “Nocturia (percentage variation from baseline)” value in data set [5] (setting [15]) is reported as −26%; in data set [5] (setting [16]), 0%; in data set [5] (setting [17]) it was −17%; in data set [5] (setting [18]), −26%; in data set [5] (setting [19]) it was −30%; in data set [5] (setting [20]) it was −25%. Moreover, the entries for the “Nocturia (percentage variation from baseline)” value in data set [5] (setting [21]) and in data set [5] (setting [22]) were −27% and −29%, respectively. Further, the “Testosterone [ng/mL] (median)” value in data set [6] (setting [9]) is 3.96 ng/mL; in data set [6] (setting [10]), 2.59 ng/mL; in data set [6] (setting [11]), 4.01 ng/mL; in data set [6] (setting [12]) it was 4.10 ng/mL; in data set [6] (setting [13]), 3.96 ng/mL; in data set [6] (setting [14]), 4.12 ng/mL. Further, the “Testosterone [ng/mL] (median)” value in data set [6] (setting [15]) is reported as 4.30 ng/mL; in data set [6] (setting [16]), 3.71 ng/mL; in data set [6] (setting [17]), 2.19 ng/mL; in data set [6] (setting [18]), 3.70 ng/mL; in data set [6] (setting [19]) it was 3.73 ng/mL.
Regarding Ozarelix, the “decrease in frequency of emptying compared to placebo” value in data set [3] (setting [23]) is on record as “up to 0.30”. Moreover, the “Frequency of emptying (n-times, mean)” value in data set [3] (Week 4) came out at 2.48 n-times; in data set [3] (Week 8) it was 2.11 n-times; in data set [3] (Week 12), 1.82 n-times; in data set [3] (Week 16) it was 1.75 n-times; in data set [3] (Week 20), 1.71 n-times; in data set [3] (Week 24) it was 1.75 n-times. Also, the “decrease in nocturia frequency compared to placebo” value in data set [5] (setting [23]) is recorded as “up to 0.76”. In addition, the “Nocturia (n-times, mean)” value is 2.73 n-times in data set [5] (Week 0); 1.83 n-times in data set [5] (Week 4); 1.43 n-times in data set [5] (Week 8); 1.54 n-times in data set [5] (Week 12); 1.54 n-times in data set [5] (Week 16); 1.50 n-times in data set [5] (Week 20). In addition, the “Nocturia (n-times, mean)” value in data set [5] (Week 24) turned out to be 1.54 n-times. Besides, the “decrease in urgency to urinate compared to placebo” value in data set [7] (setting [23]) is on record as “up to 0.74”. Also, the “Urgency to urinate (n-times, mean)” value in data set [7] (Week 0) was found to be 2.80 n-times; in data set [7] (Week 4), 2.17 n-times; in data set [7] (Week 8), 1.89 n-times; in data set [7] (Week 12), 1.75 n-times; in data set [7] (Week 16), 1.39 n-times; in data set [7] (Week 20) it was 1.71 n-times. For the same compound, in data set [7] (Week 24), the “Urgency to urinate (n-times, mean)” value is 1.89 n-times. Besides, the “Testosterone [ng/mL] (median)” value in data set [6] (15 + 15: 15 mg at week 0 and week 2, Week 0) is 3.57 ng/mL; in data set [6] (15 + 15: 15 mg at week 0 and week 2, Week 4) it was 2.97 ng/mL; in data set [6] (15 + 15: 15 mg at week 0 and week 2, Week 8), 4.19 ng/mL; in data set [6] (15 + 15: 15 mg at week 0 and week 2, Week 12) it was 4.11 ng/mL; in data set [6] (15 + 15: 15 mg at week 0 and week 2, Week 16) it was 3.82 ng/mL; in data set [6] (15 + 15: 15 mg at week 0 and week 2, Week 20) it was 3.92 ng/mL. The “Testosterone [ng/mL] (median)” value in data set [6] (15 + 15: 15 mg at week 0 and week 2, Week 24) is recorded as 3.86 ng/mL.
